Data published in PubChem BioAssay (NCI).
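Briefly, cells in 96-well plates were exposed to five compound concentrations for 48 h, and endpoints were estimated by linear interpolation. GI50 = concentration required for 50% inhibition of growth. Definition used: TGI = concentration required for complete inhibition of growth.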

Legend:
Experiment in all cases: NCI anticancer screen, dose series, 48 h
LOX IMVI melanoma = test system: LOX IMVI melanoma
MDA-MB-435 = test system: MDA-MB-435
COLO 205 colon = test system: COLO 205 colon
NCI-H460 lung = test system: NCI-H460 lung
A498 renal = test system: A498 renal
MDA-MB-231 breast = test system: MDA-MB-231 breast
NCI-H522 lung = test system: NCI-H522 lung
T-47D breast = test system: T-47D breast
786-0 renal = test system: 786-0 renal
KM12 colon = test system: KM12 colon

| Compound | TGI (LOX IMVI melanoma) [µM] | TGI (MDA-MB-435) [µM] | TGI (COLO 205 colon) [µM] | TGI (NCI-H460 lung) [µM] | TGI (A498 renal) [µM] | TGI (MDA-MB-231 breast) [µM] | TGI (NCI-H522 lung) [µM] | TGI (T-47D breast) [µM] | TGI (786-0 renal) [µM] | TGI (KM12 colon) [µM] | GI50 (LOX IMVI melanoma) [µM] | GI50 (MDA-MB-435) [µM] | GI50 (COLO 205 colon) [µM] | GI50 (NCI-H460 lung) [µM] | GI50 (A498 renal) [µM] | GI50 (MDA-MB-231 breast) [µM] | GI50 (NCI-H522 lung) [µM] | GI50 (T-47D breast) [µM] | GI50 (786-0 renal) [µM] | GI50 (KM12 colon) [µM] |
| --- | --- | --- | --- | --- | --- | --- | --- | --- | --- | --- | --- | --- | --- | --- | --- | --- | --- | --- | --- | --- |
| CNC(=O)OCc1c(COC(=O)NC)c(-c2ccc(Cl)c(Cl)c2)n2c1SCC2 | 25.5 | 33.3 | 26.7 | 19.9 | 2.07 | 34.4 | 21.5 | 57.2 | > 46.8 | 36.8 | – | – | – | – | – | – | – | – | – | – |
| CN1CCN(Cc2ccc(NC(=O)c3cncc(C#Cc4cnc(N)c5ccc(C#N)cc45)c3)cc2C(F)(F)F)CC1 | 0.546 | 0.675 | 0.722 | 1.1 | 0.478 | 0.228 | 1.69 | 2.03 | 1.01 | 0.603 | 0.0203 | 0.0286 | 0.0178 | 0.0976 | 0.0208 | 0.037 | 0.088 | 0.247 | 0.111 | 0.005 |
| CCc1c(Oc2ccc(C(C)=O)cc2)c2ccccc2[nH]c1=O | 46.2 | > 100 | 40.7 | 65.7 | 32 | 39.1 | > 68.3 | 24.6 | > 72.1 | > 60.9 | 17.3 | 16.5 | 13.7 | 18.7 | 17.2 | 7.03 | 14.1 | 4.07 | 21.7 | 18.6 |
| O=C1/C(=C/c2ccc(Br)cc2)C=C(c2ccccc2)N1CCc1ccccc1 | 10.8 | > 100 | 27.5 | 10.2 | 5.44 | 24.7 | 87.1 | > 100 | 2.8 | > 100 | 0.82 | 8.38 | 3.26 | 0.906 | 0.652 | 1.67 | 6.54 | 13.3 | 0.647 | 43.6 |
| O=C1CNCCCN2CCN(CCCNCC(=O)Nc3ccc(cc3)S(=O)(=O)c3ccc(cc3)NC(=O)CNCCCN3CCN(CCCNCC(=O)Nc4ccc(cc4)S(=O)(=O)c4ccc(cc4)N1)CC3)CC2 | > 100 | > 58.8 | 96.9 | 33.8 | 47.1 | 52.1 | 53.8 | 97.2 | 38.9 | > 100 | – | – | – | – | – | – | – | – | – | – |
| CC1CCC2(C(=O)O)CCC3(C)C(=CCC4C5(C)CC(O)C(O)C(C)(CO)C5C(O)CC43C)C2C1C (stereo not drawn) | 42.3 | > 100 | > 100 | > 100 | 48 | 72 | 33.9 | > 84.7 | 20 | > 100 | – | – | – | – | – | – | – | – | – | – |
| Cn1cc(-c2cnc3ccc(NC(=O)Nc4ccc(F)c(Br)c4)cc3n2)cn1 | 2.9 | 3.95 | 3.24 | 3.77 | 4.04 | 4.14 | 4.75 | 2.27 | 5.9 | 3.65 | 1.51 | 1.81 | 1.59 | 1.74 | 1.51 | 1.78 | 1.71 | 0.631 | 1.98 | 1.71 |
| O=c1oc2ccc(F)cc2c(=O)n1-c1ccc(F)cc1F | 22 | 14.6 | 12.5 | 62.4 | 3.91 | 6.99 | 12.3 | 7.08 | 11.4 | 14 | 3.79 | 3.21 | 3.56 | 3.42 | 1.62 | 2.3 | 2.61 | 2.28 | 3.13 | 3.38 |
| N#Cc1ccc(C#Cc2ccccc2C#CCCCCO)cc1 | 32.5 | 35.6 | 34.3 | 49 | 27.7 | 31.3 | 31.1 | 28 | 18.1 | 36.2 | 18.3 | 18.9 | 18.1 | 19.7 | 13.8 | 16.7 | 16.1 | 13 | 4.39 | 17.8 |
| O=C(O)CCCCC(CCSCc1ccccc1)SCc1ccccc1 (stereo not drawn) | > 100 | > 100 | > 100 | > 100 | > 96.7 | > 100 | > 100 | > 100 | > 100 | > 100 | 48.2 | > 73.7 | > 92.3 | 33.4 | > 38.9 | > 66.9 | 34.1 | 44 | 64.2 | 35.2 |
| Cc1ccc(S(=O)(=O)N(CCOc2ccc(/C(N)=N/Cl)cc2)CCOc2ccc(/C(N)=N\Cl)cc2)cc1 | > 100 | > 100 | 28.8 | 25.2 | > 100 | > 100 | 76.4 | 81.7 | > 100 | 28.1 | 16.7 | 21.8 | 11 | 5.62 | 52.3 | 44.4 | 13.3 | 15.3 | 34.6 | 12.4 |
| COc1cccc(/C=N/NC(=O)c2ccccc2Nc2ccnc(C(F)(F)F)c2)c1O | > 100 | > 100 | > 53.8 | 8.26 | > 42.8 | > 100 | 46.1 | 38.8 | > 37.5 | > 56.4 | 0.264 | 1.26 | 0.353 | 0.262 | 5.11 | 0.423 | 0.521 | 0.498 | 0.552 | 0.457 |
| CN(C)CCC(=O)N1C/C(=C/c2ccccc2)C(=O)/C(=C\c2ccccc2)C1 | 1.27 | 3.85 | 5.77 | 6.47 | 6.75 | 2.6 | 0.977 | 17.7 | 3.62 | 1.73 | – | – | – | – | – | – | – | – | – | – |
| Cc1cc(N(CCOS(C)(=O)=O)CCOS(C)(=O)=O)ccc1C=Nc1ccc(-c2nc(Cc3ccccc3)sc2C)cc1 | 20.2 | 26.6 | 4.76 | 5.03 | 6.39 | 26.9 | 0.648 | 23.8 | 15.1 | 34 | – | – | – | – | – | – | – | – | – | – |
| O=C(Nc1ccc(N2CCNCC2)cc1)c1[nH]ncc1Nc1cc(Oc2ccccc2)ncn1 | 0.54 | 4.66 | 2.78 | 2.3 | 4.82 | 5.72 | 8.19 | 8.09 | 3.33 | 0.521 | 0.22 | 1.68 | 1.19 | 0.635 | 1.96 | 2.03 | 2.14 | 2.46 | 1.84 | 0.216 |
| CC1=C(CCCNS(C)(=O)=O)C2=C(C)C3(CC3)[C@@](C)(O)C(=O)C2=C1 | 6.34 | 5.41 | 2.69 | 0.812 | 2.77 | 6.5 | 7.7 | 6.02 | 6.32 | > 100 | 1.8 | 1.99 | 0.853 | 0.266 | 1.05 | 1.63 | 2.09 | 0.563 | 0.816 | 3.99 |
| O=NN(Cc1ccc(Cl)cc1)C(C(=O)O)c1ccccc1 (stereo not drawn) | > 100 | > 100 | > 100 | > 100 | > 100 | > 100 | > 100 | > 100 | > 100 | > 100 | – | – | – | – | – | – | – | – | – | – |
| CCOc1cccc(/C=N/NC(=O)c2ccccc2Nc2ccnc(C(F)(F)F)c2)c1O | > 100 | 77.4 | 36.9 | 7.05 | > 74.8 | > 100 | > 63 | 37.5 | 24 | 47.7 | 0.241 | 1.07 | 0.347 | 0.272 | 20.1 | 0.7 | 3.47 | 0.582 | 1.32 | 0.513 |
| Cc1c(C(=O)N/N=C/c2ccc(Cl)cc2)nnn1-c1ccnc2c(C(F)(F)F)cccc12 | 3.18 | 21.3 | 3.58 | 15.8 | 45.1 | 6.08 | 35.2 | 28.9 | 37.8 | 41.7 | 1.69 | 4.46 | 1.55 | 4.49 | 15.9 | 2.17 | 11.8 | 7.59 | 18.5 | 8.94 |
| Nc1ccn(C2O[C@H](CO)[C@@H](O)[C@@H]2O)c(=O)n1 (stereo partly drawn) | > 100 | > 100 | > 100 | > 100 | > 100 | > 100 | > 100 | > 100 | > 100 | > 100 | – | – | 51.8 | 23 | – | – | 26.5 | – | – | – |
